Here are results for three compounds from patent US20080233151A1, “Use of non-antibacterial tetracycline analogs and formulations thereof for the treatment of bacterial exotoxins” (priority 2002, published 2008).

The subject of this experiment is bacteria. As to the kind of experiment: Non-antimicrobial dose and plasma antimicrobial threshold of antibacterial tetracyclines. How it is done:
For example, tetracycline compounds that have significant antibacterial activity may be administered in an amount which is 10-80% of the antibacterial amount. More preferably, the antibacterial tetracycline compound is administered in an amount which is 40-70% of the antibacterial amount.
Examples of antibacterial tetracyclines administered in a non-antibacterial amount are depicted in Table 1, as follows: […]

Take `CN(C)c1ccc(O)c2c1C[C@H]1C[C@H]3[C@H](N(C)C)C(O)=C(C(N)=O)C(=O)[C@@]3(O)C(O)=C1C2=O` [Minocycline]: the “Plasma Antimicrobial Threshold Level” value came out at 0.8 µg/mL. Moreover, the “Maximum Non-Antimicrobial Dose” value (once daily) is recorded as 38 mg q.d.

As for `C[C@H]1c2cccc(O)c2C(=O)C2=C(O)[C@]3(O)C(=O)C(C(N)=O)=C(O)[C@@H](N(C)C)[C@@H]3[C@@H](O)[C@@H]21` [Doxycycline], the “Plasma Antimicrobial Threshold Level” value came out at 1.0 µg/mL. The “Maximum Non-Antimicrobial Dose” value (twice daily) was determined as 20 mg b.i.d.

As to `CN(C)[C@@H]1C(O)=C(C(N)=O)C(=O)[C@@]2(O)C(O)=C3C(=O)c4c(O)cccc4[C@@](C)(O)[C@H]3C[C@@H]12` [Tetracycline], the “Plasma Antimicrobial Threshold Level” value came out at 0.5 µg/mL. The “Maximum Non-Antimicrobial Dose” value (once daily) is on record as 60 mg q.d.
